From patent US20240067632A1, “WEE1 Degrading Compounds and Uses Thereof” (Bristol-Myers Squibb Company, priority 2022, published 2024)

Target: T1, WEE1 (Homo sapiens, UniProt P30291+Q96SW2)
T1 construct: C-terminal ePL-tagged (DiscoverX, Fremont, CA) full-length WEE1 expression construct; expressed in transfected cells; host or cells: LentiX-HEK293T (Invitrogen), lentiviral transduction; co-expressing GSPT1-GN (G576N, lacking the first 158 amino acids)
Assay: WEE1-ePL degradation assay (LentiX-WEE1-ePL-GSPT1-ND cells, InCELL Hunter luminescence, 4 h)
Type: cell-based
Conditions: 293T-LentiX WEE1-ePL cells; for DC50: read-out: 293T-LentiX WEE1-ePL Degradation 4 hr (EC50)
Method: To generate LentiX-WEE1-ePL-GSPT1-ND cells for the WEE1 degradation assay, LentiX-HEK293T (Invitrogen) were transduced by lentivirus with a C-terminal ePL-tagged (DiscoverX, Fremont, CA) full-length WEE1 expression construct. […] Cells were selected and maintained in complete DMEM media (DMEM, 10% Heat Inactivated FBS, 400 μg/mL Geneticin, and 1 μg/mL puromycin at 37 C and 5% CO2). Cells were passaged every 3-4 days by reseeding 1×10^6 cells in a T150 flask.
Cells were dispensed into 384-well white plates (Corning #3570, NY) that were pre-spotted with compounds using an acoustic dispenser (Echo acoustic transfer system, Beckman Coulter Life Sciences, Carlsbad, CA) as a 10-point dose-response curve with a 3-fold dilution starting at either 1 uM or 10 uM and including a DMSO control. Twenty-five microliters of media containing 2500 cells for LentiX-oeWEE1-ePL was dispensed per well. Assay plates were incubated at 37° C. with 5% CO2 for four hours (WEE1) After incubation, 25 μL of the InCELL Hunter™ Detection Reagent Working Solution (DiscoverX, Fremont, CA) was added to each well and incubated at room temperature for 30 minutes protected from light. After 30 minutes, luminescence was read on a PHERAstar luminometer (Cary, NC).
To determine the half-maximal effective concentration (EC50) values for WEE1-ePL degradation, a four parameter logistic model was used: (Sigmoidal Dose-Response Model) (FIT=(A+((B−A)/1+((C/x)^D)))) where C is the inflection point (EC50), D is the Hill slope, and A and B are the low and high limits of the fit respectively). The lower limit of the fit (value A) is referred to as Ymin. […] The maximum limit constraint, Ymax, is similarly derived using DMSO control. The curves were processed and evaluated using Activity Base (IDBS, Alameda, CA).

[1] = lower limit of the fit (0 = luciferase inhibitor, Ymax = DMSO control)
[2] = lower limit of the fit (Ymin=0 luciferase inhibitor, Ymax DMSO control)

Row | 293T-LentiX WEE1-ePL Degradation 4 hr (Ymin) [1] | 293T-LentiX WEE1-ePL Degradation 4 hr (Ymin) [2] | DC50 [nM] | Structure (SMILES)
1 | 86.31 |  |  | O=C1CCC(N2C(=O)c3ccc(O[C@@H]4CCN(Cc5cnc6ccccc6c5)C4)cc3C2=O)C(=O)N1 (stereo partly drawn) [2-(2,6-dioxopiperidin-3-yl)-5-{[(3R)-1-[(quinolin-3-yl)methyl]pyrrolidin-3-yl]oxy}-2,3-dihydro-1H-isoindole-1,3-dione]
2 | 90.1 |  |  | O=C1CCC(N2C(=O)c3ccc(O[C@@H]4CCN(Cc5ccnc6ccccc56)C4)cc3C2=O)C(=O)N1 (stereo partly drawn) [2-(2,6-dioxopiperidin-3-yl)-5-{[(3R)-1-[(quinolin-4-yl)methyl]pyrrolidin-3-yl]oxy}-2,3-dihydro-1H-isoindole-1,3-dione]
3 | 89.045 |  |  | O=C1CCC(N2C(=O)c3ccc(O[C@@H]4CCN(Cc5cccc6ncccc56)C4)cc3C2=O)C(=O)N1 (stereo partly drawn) [2-(2,6-dioxopiperidin-3-yl)-5-{[(3R)-1-[(quinolin-5-yl)methyl]pyrrolidin-3-yl]oxy}-2,3-dihydro-1H-isoindole-1,3-dione]
4 | 83.71 |  |  | O=C1CCC(N2C(=O)c3ccc(O[C@@H]4CCN(Cc5ccc6ncccc6c5)C4)cc3C2=O)C(=O)N1 (stereo partly drawn) [2-(2,6-dioxopiperidin-3-yl)-5-{[(3R)-1-[(quinolin-6-yl)methyl]pyrrolidin-3-yl]oxy}-2,3-dihydro-1H-isoindole-1,3-dione]
5 |  | 110 |  | O=C1CCC(N2Cc3cc(O[C@@H]4CCN(c5cnccn5)C4)ccc3C2=O)C(=O)N1 (stereo partly drawn) [3-(1-oxo-5-{[(3R)-1-(pyrazin-2-yl)pyrrolidin-3-yl]oxy}-2,3-dihydro-1H-isoindol-2-yl)piperidine-2,6-dione]
6 |  | 87.61 |  | O=C1CCC(N2Cc3cc(O[C@@H]4CCN(Cc5c[nH]c6ncccc56)C4)ccc3C2=O)C(=O)N1 (stereo partly drawn) [3-(1-oxo-5-{[(3R)-1-({1H-pyrrolo[2,3-b]pyridin-3-yl}methyl)pyrrolidin-3-yl]oxy}-2,3-dihydro-1H-isoindol-2-yl)piperidine-2,6-dione]
7 |  | 93.39 |  | O=C1CCC(N2Cc3cc(O[C@@H]4CCN(Cc5c[nH]c6cnccc56)C4)ccc3C2=O)C(=O)N1 (stereo partly drawn) [3-(1-oxo-5-{[(3R)-1-({1H-pyrrolo[2,3-c]pyridin-3-yl}methyl)pyrrolidin-3-yl]oxy}-2,3-dihydro-1H-isoindol-2-yl)piperidine-2,6-dione]
8 |  | 83.91 |  | O=C1CCC(N2Cc3cc(O[C@@H]4CCN(Cc5cnc6ccccc6c5)C4)ccc3C2=O)C(=O)N1 (stereo partly drawn) [3-(1-oxo-5-{[(3R)-1-[(quinolin-3-yl)methyl]pyrrolidin-3-yl]oxy}-2,3-dihydro-1H-isoindol-2-yl)piperidine-2,6-dione]
9 |  | 87.11 |  | O=C1CCC(N2Cc3cc(O[C@@H]4CCN(Cc5ccnc6ccccc56)C4)ccc3C2=O)C(=O)N1 (stereo partly drawn) [3-(1-oxo-5-{[(3R)-1-[(quinolin-4-yl)methyl]pyrrolidin-3-yl]oxy}-2,3-dihydro-1H-isoindol-2-yl)piperidine-2,6-dione]
10 |  | 91.51 |  | O=C1CCC(N2Cc3cc(O[C@@H]4CCN(Cc5cccc6ncccc56)C4)ccc3C2=O)C(=O)N1 (stereo partly drawn) [3-(1-oxo-5-{[(3R)-1-[(quinolin-5-yl)methyl]pyrrolidin-3-yl]oxy}-2,3-dihydro-1H-isoindol-2-yl)piperidine-2,6-dione]
11 |  | 90.24 |  | O=C1CCC(N2Cc3cc(O[C@@H]4CCN(Cc5ccc6ncccc6c5)C4)ccc3C2=O)C(=O)N1 (stereo partly drawn) [3-(1-oxo-5-{[(3R)-1-[(quinolin-6-yl)methyl]pyrrolidin-3-yl]oxy}-2,3-dihydro-1H-isoindol-2-yl)piperidine-2,6-dione]
12 | 58.74 |  | 408 | O=C1CCC(N2Cc3cc(O[C@H]4CCN(Cc5cccc6ncncc56)C4)ccc3C2=O)C(=O)N1 (stereo partly drawn) [3-(1-oxo-5-{[(3S)-1-[(quinazolin-5-yl)methyl]pyrrolidin-3-yl]oxy}-2,3-dihydro-1H-isoindol-2-yl)piperidine-2,6-dione]
13 | 53.34 |  | 174 | O=C1CCC(N2Cc3cc(O[C@H]4CCN(Cc5cccc6nccnc56)C4)ccc3C2=O)C(=O)N1 (stereo partly drawn) [3-(1-oxo-5-{[(3S)-1-[(quinoxalin-5-yl)methyl]pyrrolidin-3-yl]oxy}-2,3-dihydro-1H-isoindol-2-yl)piperidine-2,6-dione]
14 | 89.42 |  |  | O=C1CCC(N2Cc3ccc(O[C@@H]4CCN(Cc5cnc6ccccc6c5)C4)cc3C2=O)C(=O)N1 (stereo partly drawn) [3-(1-oxo-6-{[(3R)-1-[(quinolin-3-yl)methyl]pyrrolidin-3-yl]oxy}-2,3-dihydro-1H-isoindol-2-yl)piperidine-2,6-dione]
15 |  | 94.2 |  | Cc1nc(C)c(CN2CC[C@@H](Oc3ccc4c(c3)CN(C3CCC(=O)NC3=O)C4=O)C2)s1 (stereo partly drawn) [3-(5-{[(3R)-1-[(2,4-dimethyl-1,3-thiazol-5-yl)methyl]pyrrolidin-3-yl]oxy}-1-oxo-2,3-dihydro-1H-isoindol-2-yl)piperidine-2,6-dione]
16 |  | 26.54 | 2.17 | COC[C@@H]1CCC[C@@H](c2ccc3cc(CN4CC[C@H](Oc5ccc6c(c5)CN(C5CCC(=O)NC5=O)C6=O)C4)ccc3n2)C1 (stereo partly drawn) [3-(5-{[(3S)-1-({2-[(1R,3R)-3-(methoxymethyl)cyclohexyl]quinolin-6-yl}methyl)pyrrolidin-3-yl]oxy}-1-oxo-2,3-dihydro-1H-isoindol-2-yl)piperidine-2,6-dione]
17 |  | 26.32 | 1.82 | COC[C@H]1CCC[C@@H](c2ccc3cc(CN4CC[C@H](Oc5ccc6c(c5)CN(C5CCC(=O)NC5=O)C6=O)C4)ccc3n2)C1 (stereo partly drawn) [3-(5-{[(3S)-1-({2-[(1R,3S)-3-(methoxymethyl)cyclohexyl]quinolin-6-yl}methyl)pyrrolidin-3-yl]oxy}-1-oxo-2,3-dihydro-1H-isoindol-2-yl)piperidine-2,6-dione]
18 | 92.17 |  |  | Nc1cccc(COc2ccccc2CN2CC[C@H](Oc3ccc4c(c3)CN(C3CCC(=O)NC3=O)C4=O)C2)c1 (stereo partly drawn) [3-(5-{[(3S)-1-({2-[(3-aminophenyl)methoxy]phenyl}methyl)pyrrolidin-3-yl]oxy}-1-oxo-2,3-dihydro-1H-isoindol-2-yl)piperidine-2,6-dione]
19 | 78.15 |  | 818 | Nc1cccc(COc2cccc(CN3CC[C@H](Oc4ccc5c(c4)CN(C4CCC(=O)NC4=O)C5=O)C3)c2)c1 (stereo partly drawn) [3-(5-{[(3S)-1-({3-[(3-aminophenyl)methoxy]phenyl}methyl)pyrrolidin-3-yl]oxy}-1-oxo-2,3-dihydro-1H-isoindol-2-yl)piperidine-2,6-dione]
20 | 57.26 |  | 183 | O=C1CCC(N2Cc3cc(O[C@H]4CCN(Cc5cccc6nccn56)C4)ccc3C2=O)C(=O)N1 (stereo partly drawn) [3-(5-{[(3S)-1-({imidazo[1,2-a]pyridin-5-yl}methyl)pyrrolidin-3-yl]oxy}-1-oxo-2,3-dihydro-1H-isoindol-2-yl)piperidine-2,6-dione]
21 | 42.7 |  | 109 | O=C1CCC(N2Cc3cc(O[C@H]4CCN(Cc5ccc6cnccc6n5)C4)ccc3C2=O)C(=O)N1 (stereo partly drawn) [3-(5-{[(3S)-1-[(1,6-naphthyridin-2-yl)methyl]pyrrolidin-3-yl]oxy}-1-oxo-2,3-dihydro-1H-isoindol-2-yl)piperidine-2,6-dione]
22 | 96.5 |  |  | O=C1CCC(N2Cc3cc(O[C@H]4CCN(Cc5ccnc6ncccc56)C4)ccc3C2=O)C(=O)N1 (stereo partly drawn) [3-(5-{[(3S)-1-[(1,8-naphthyridin-4-yl)methyl]pyrrolidin-3-yl]oxy}-1-oxo-2,3-dihydro-1H-isoindol-2-yl)piperidine-2,6-dione]
23 | 43.42 |  | 54.5 | Cc1nccc(CN2CC[C@H](Oc3ccc4c(c3)CN(C3CCC(=O)NC3=O)C4=O)C2)c1C (stereo partly drawn) [3-(5-{[(3S)-1-[(2,3-dimethylpyridin-4-yl)methyl]pyrrolidin-3-yl]oxy}-1-oxo-2,3-dihydro-1H-isoindol-2-yl)piperidine-2,6-dione]
24 | 45.09 |  | 18.3 | COc1nc2ccccc2cc1CN1CC[C@H](Oc2ccc3c(c2)CN(C2CCC(=O)NC2=O)C3=O)C1 (stereo partly drawn) [3-(5-{[(3S)-1-[(2-methoxyquinolin-3-yl)methyl]pyrrolidin-3-yl]oxy}-1-oxo-2,3-dihydro-1H-isoindol-2-yl)piperidine-2,6-dione]
25 | 89.91 |  |  | NCc1ccccc1COc1ccccc1CN1CC[C@H](Oc2ccc3c(c2)CN(C2CCC(=O)NC2=O)C3=O)C1 (stereo partly drawn) [3-(5-{[(3S)-1-[(2-{[2-(aminomethyl)phenyl]methoxy}phenyl)methyl]pyrrolidin-3-yl]oxy}-1-oxo-2,3-dihydro-1H-isoindol-2-yl)piperidine-2,6-dione]
